From PMC6268941, “The Binding Affinity and Molecular Basis of the Structure-Binding Relationship between Urinary Tamm-Horsfall Glycoprotein and Tumor Necrosis Factor-α” (Molecules, 2012)

These compounds were tested against T1, THP-TNF-α (Tamm-Horsfall glycoprotein / tumor necrosis factor-α binding pair) (Homo sapiens, UniProt P01375+P07911) (assay: ELISA, monosaccharide inhibition of THP-TNF-α binding). Settings: 10 µg sugar preincubated overnight at 4 °C with coated TNF-α or coated THP, then the other protein added; which partner holds the sugar is not resolved.
T1 construct: recombinant human TNF-α (R&D Systems, 17 kDa); native THP purified from normal human urine (80-90 kDa)
T1 sequence (P01375 77-233, other chains not shown): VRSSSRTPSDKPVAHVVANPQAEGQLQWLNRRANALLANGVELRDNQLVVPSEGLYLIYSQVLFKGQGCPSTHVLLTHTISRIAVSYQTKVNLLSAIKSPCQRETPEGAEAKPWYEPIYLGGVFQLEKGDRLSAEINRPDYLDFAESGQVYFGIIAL

SMILES | ELISA, monosaccharide inhibition of THP-TNF-α binding
CC(=O)N[C@H]1C(O)O[C@H](CO)[C@H](O)[C@@H]1O (stereo partly drawn) [N-acetyl-galactosamine] | mannose, GlcNAc, and GalNAc significantly suppressed THP-TNF-α binding
CC(=O)N[C@H]1C(O)O[C@H](CO)[C@@H](O)[C@@H]1O (stereo partly drawn) [N-acetyl-glucosamine] | mannose, GlcNAc, and GalNAc significantly suppressed THP-TNF-α binding
CO[C@H]1O[C@H](CO)[C@@H](O)[C@H](O)[C@@H]1O [α-methyl-D-mannoside] | mannose, GlcNAc, and GalNAc significantly suppressed THP-TNF-α binding
